According to patent EP0986381B1, “USE OF DITERPENES LIKE HYPOESTOXIDES FOR THE MANUFACTURE OF A MEDICAMENT FOR IMMUNOSUPPRESSION, ANTICANCER AND ANTIVIRAL TREATMENT” (Immune Modulation, Inc., priority 1997, dated 1998):

Assays:
[1] = tested on: human two-way mixed lymphocyte reaction (PBMCs from two individuals); experiment: Two-way mixed leukocyte reaction (MLR), 3H-thymidine incorporation; format: cell-based
Experimental: The MLR is an assay recognized by those skilled in the art as an in vitro predictor of in vivo immunosuppressant activity. The MLR is an in vitro model of T-cell recognition of foreign major histocompatibility complex (MHC) gene products and was used as a predictive test of cell-mediated graft rejection (Abbas, A.K., et al., eds, 1994, 2nd ed. Cellular and Molecular Immunology, W.B. Saunders Co., USA). Graft rejection is carried out by T cells that recognize MHC molecules and destroy the graft. This process can be studied in vivo, but in-depth analysis, especially in humans, required the development of tests such as the MLR as an in vitro correlate of graft rejection. (Janeway, Chas. and Travers, Paul, Immunobiology, 2nd Ed., Garland Publishing, Inc, New York (1996)). It is well known in the art that the MLR is induced by co-culturing mononuclear leukocytes from one individual with mononuclear leukocytes derived from another individual. If there are differences in the alleles of the MHC genes between the two individuals, a large proportion of the mononuclear cells will proliferate over a period of 4-7 days, and is referred to as allogeneic MLR. The level of proliferative response is measured by incorporation of ^3H-thymidine into DNA during cell replication. Because the cells from each donor react and proliferate against the other, the resultant response is known as a "two-way MLR". JO-4 was tested in the MLR for its ability to "immunosuppress".
Mononuclear cells (at 2 x 10^6/ml) of each donor were first mixed thoroughly together in a 50 ml tube at a 1:1 ratio with volume. […] Cells were harvested onto glass fiber filters (Packard, Downers Grove, IL) with a 96-well automatic cell harvester (TOMTEC, Hamden, CT) and were counted directly on a Matrix 9600 beta counter (Packard).
Data were expressed as percent inhibition (% Inhibition) according to the following formula: % Inhibition = 100 -((Counts per minute (CPM) for wells with drug x 100))/(CPM for wells without drug) [formula] […]

HSV-2 = experiment: In vitro HSV-2 replication assay, Hybriwix Probe Systems; format: cell-based, Herpes simplex virus
Experimental: The antiviral activity of the drug was determined using the Hybriwix™ Probe Systems (Herpes Antiviral Susceptibility Test kit: Diagnostic Hybrids, Inc., Athens, OH). Briefly, either HSV-1 or HSV-2 isolates (ATTC, Rockville, MD) were pre-adsorbed at 37°C and 5% CO2 in a humidified incubator for 60 minutes on African green monkey Kidney cells in a 24-well flat-bottom plate. Following pre-adsorption, the viral inoculum was removed and the growth medium containing various concentrations of appropriate drug was placed in appropriate wells. The culture was continued for 48 hours for the amplification of the virus. Quantification of the HSV DNA present in each well was determined by the nucleic acid hybridization method. The cells and/or virus were lysed with DNA wicking agent and the single-stranded DNA was immobilized on a Hybriwix™ filter by a vertical capillary absorption of the wicking agent/DNA solution. The amount of HSV target DNA from each well was determined using radioactive (I^125)-HSV DNA probe containing genetic sequences, which are homologous to HSV-1 or HSV-2 sequences. The amount of radioactivity present on the Hybriwix™ was dependent upon the amount of HSV DNA present after culture, and was determined in a gamma counter (Packard Instrument Co., Meriden, CT).

[2] = Colorimetric MTT cytotoxicity assay, CV-1 cells; format: cell-based; conditions: african green monkey, read-out: concentration giving cytotoxicity of greater than 50%
Experimental: Normal African green monkey kidney cells (CV-1): CV-1 cells from the Hybriwix™ Probe Systems: Herpes Antiviral Susceptibility Test kit (Diagnostic Hybrids, Inc., Athens, OH) were used for toxicity testing of JO-4A by MTT assay. Colorimetric MTT assay: Cytotoxic effects of drugs were determined in vitro by a colorimetric assay (Mosmann, T., J. Immunol. Methods, 65: 55-63, 1983). Briefly, 1000 cells per well (100 µl) in a 96-well flat-bottom plate were cultured either with the culture medium alone or with various concentrations of drug at 37°C, in a 5% CO2-95% air humidified incubator for 72 hours. At the end of the culture, 10 µl of 5 mg/ml sterile solution of 3-(4,5-Dimethylthiazol-2yl)-2,5-diphenyltetrazolium bromide (MTT) (Sigma Chemicals, Saint Louis, MO) in PBS was added per well and the incubation was resumed for an additional 4 hours. Acid-isopropanol (100 µl of 0.04 N HCl in isopropanol) was added to all wells and kept at room temperature for 30 minutes. Mixing with a multichannel pipetter dissolved the dark blue crystals and the absorbance was measured at 545-650 nm using an ELISA plate reader.

| Structure (SMILES) | IC50 ([1]; Homo sapiens, Leukocyte, 120 h, 5 days) | inhibition at 10 µM ([1]; Homo sapiens, Leukocyte, at 10.0 µM) | replication and growth of HSV-2 (HSV-2; African Green Monkey kidney cells) | CC50 at 72 h [2] | effect on two-way MLR ([1]; JO-4 at 1.0, 0.5 or 0.25 µg/ml, 5 days) | inhibition at 3.125 µM (HSV-2; Human alphaherpesvirus 2, 48 h, 3.125 µM, two days, African green monkey kidney cells) | inhibition at 12.5 µM (HSV-2; Human alphaherpesvirus 2, 48 h, 12.5 µM, two days, African green monkey kidney cells) | IC50 (HSV-2; Human alphaherpesvirus 2, 48 h, two days, African green monkey kidney cells, read-out: IC50 dose on HSV-1 inhibition (paragraph on HSV-2 replication)) |
| --- | --- | --- | --- | --- | --- | --- | --- | --- |
| C=C1C(=O)CC2CC3OC3(C)CCC3OC3(C)CC(O)C1C2(C)C (stereo not drawn) [JO-4A] | 5 to 10 µM | 64% | inhibited | ~25 µM | – | – | – | – |
| C=C1C(=O)C[C@H]2C[C@@H]3O[C@@]3(C)CC[C@@H]3O[C@@]3(C)C[C@@H](OC(C)=O)[C@H]1C2(C)C [JO-4, hypoestoxide] | – | – | – | > 50 µM | inhibited | 58% | 65% | < 3.12 µM |
